From patent US20210076677A1, “NOVEL PESTICIDAL COMBINATIONS” (priority 2017, published 2021) come the findings set out here.

Test [1] deals with Alternaria solani in tomato. The experiment in a line: Field trial, early blight control in tomato (Colby synergy). The test is classed as in vivo. The following applies: 10 days after application, Mancozeb + Azoxystrobin 1750 g/ha, Chlorantriniprole 150 g/ha. The method, then:
Studies were conducted to compare the efficacy of the combination of amide insecticides with fungicides selected from the various classes and to compare their observed efficacy with the ‘expected_ efficacy when amide insecticides and fungicides were used to treat fungal and insect pests. Any difference between the observed and ‘expected_ efficacy could be attributed to synergy between the two compounds in the control of fungal and insect pests. The expected efficacy of a combination of amide insecticides with fungicides was calculated using the well-established Colby method. […] An unexpected enhancement in efficacy of the combination is then determined by comparing the observed response of the combination to the expected (or predicted) response as calculated from the observed response of each individual component alone. If the observed response of the combination is greater than the expected (or predicted) response, or stated conversely, if the difference between the observed and expected response is greater than zero, then the combination is said to be synergistic or unexpectedly effective. (Colby, S. R., Weeds, 1967(15), p. 20-22) The Colby method requires only a single dose of each active applied alone and the mixture of both doses. The formula used to calculate the expected efficacy (EE) which was compared with the observed efficacy (OE) to determine the efficacy of the present invention is explained hereinbelow: […] The efficacy of the individual actives of the invention and their combinations were evaluated on various fungal and insect pests. The trial was carried out in Randomized Complete Block (RCB) method, all field trials were conducted using this method. Each trial was replicated three times and conducted under GEP guidelines. Application volumes were varied for each mixture. Such field trials were carried out at various locations so as to generate independent data, the locations were chosen randomly across India. […]

Test [2] deals with Helicoverpa armigera in tomato. The test can be described thus: Field trial, fruit borer control in tomato (Colby synergy). It is filed as in vivo. The following applies: 10 days after application, Mancozeb + Azoxystrobin 1750 g/ha, Chlorantriniprole 150 g/ha. How it is done:
Studies were conducted to compare the efficacy of the combination of amide insecticides with fungicides selected from the various classes and to compare their observed efficacy with the ‘expected_ efficacy when amide insecticides and fungicides were used to treat fungal and insect pests. Any difference between the observed and ‘expected_ efficacy could be attributed to synergy between the two compounds in the control of fungal and insect pests. The expected efficacy of a combination of amide insecticides with fungicides was calculated using the well-established Colby method.
In the Colby method, the expected (or predicted) response of a combination of actives is calculated by taking the product of the observed response for each individual component of the combination when applied alone divided by 100 and subtracting this value from the sum of the observed response for each component when applied alone. An unexpected enhancement in efficacy of the combination is then determined by comparing the observed response of the combination to the expected (or predicted) response as calculated from the observed response of each individual component alone. If the observed response of the combination is greater than the expected (or predicted) response, or stated conversely, if the difference between the observed and expected response is greater than zero, then the combination is said to be synergistic or unexpectedly effective. (Colby, S. R., Weeds, 1967(15), p. 20-22) The Colby method requires only a single dose of each active applied alone and the mixture of both doses. […]
The efficacy of the individual actives of the invention and their combinations were evaluated on various fungal and insect pests. […]
Further field trials were carried out to test the synergy of the combination amide […] chlorantriniprole in combination with fungicides for the control of Helicoverpa armigera in tomato. […] The percentage efficacy was calculated after 10 days of applications and the results are recorded in the table below: […]

On to `CNC(=O)c1cc(Cl)cc(C)c1NC(=O)c1cc(Br)nn1-c1ncccc1Cl` [Chlorantriniprole, chlorantraniliprole], for which the “% Disease control, Early Blight Control in tomato 10DAA, Actual” value is given as 1.91% in test [1] (first trial (columns c2/c3)), 1.86% in test [1] (second trial (columns c4/c5)) and 2.70% in test [1] (third trial (columns c6/c7)). Besides, the “% control of pest, Fruit Borer control in tomato 10DAA, Actual” value in test [2] (first trial (columns c2/c3)) is given as 75.8%; in test [2] (second trial (columns c4/c5)) it was 86.4%; in test [2] (third trial (columns c6/c7)), 88.4%.
